Tests used:
[1] = biological target: Glycogen synthase kinase-3 beta (Homo sapiens, UniProt P49841)
Description: Inhibition of GSK3-beta after 1 hr

[2] = biological target: Serine/threonine-protein kinase PAK 4 (Homo sapiens, UniProt O96013); assay: Inhibition of Pak4 after 1 hr using biotinylated L15 peptide as substrate
[3] = biological target: Serine/threonine-protein kinase pim-1 (Homo sapiens, UniProt P11309); assay: Inhibition of Pim1 after 1 hr using biotinylated AL1peptide as substrate
[4] = biological target: Rho-associated protein kinase 2 (Homo sapiens, UniProt O75116); assay: Inhibition of Rock2 after 1 hr using biotinylated longS peptide as substrate
[5] = biological target: Vascular endothelial growth factor receptor 2 (Homo sapiens, UniProt P35968); assay: Inhibition of KDR after 1 hr
[6] = biological target: Epidermal growth factor receptor (Homo sapiens, UniProt P00533)
Description: Inhibition of EGFR after 1 hr

[7] = biological target: Tyrosine-protein kinase JAK2 (Homo sapiens, UniProt O60674); assay: Inhibition of JAK2 after 1 hr using biotinylated PDKtide as substrate
Sequence of Tyrosine-protein kinase JAK2 (O60674 whole entry): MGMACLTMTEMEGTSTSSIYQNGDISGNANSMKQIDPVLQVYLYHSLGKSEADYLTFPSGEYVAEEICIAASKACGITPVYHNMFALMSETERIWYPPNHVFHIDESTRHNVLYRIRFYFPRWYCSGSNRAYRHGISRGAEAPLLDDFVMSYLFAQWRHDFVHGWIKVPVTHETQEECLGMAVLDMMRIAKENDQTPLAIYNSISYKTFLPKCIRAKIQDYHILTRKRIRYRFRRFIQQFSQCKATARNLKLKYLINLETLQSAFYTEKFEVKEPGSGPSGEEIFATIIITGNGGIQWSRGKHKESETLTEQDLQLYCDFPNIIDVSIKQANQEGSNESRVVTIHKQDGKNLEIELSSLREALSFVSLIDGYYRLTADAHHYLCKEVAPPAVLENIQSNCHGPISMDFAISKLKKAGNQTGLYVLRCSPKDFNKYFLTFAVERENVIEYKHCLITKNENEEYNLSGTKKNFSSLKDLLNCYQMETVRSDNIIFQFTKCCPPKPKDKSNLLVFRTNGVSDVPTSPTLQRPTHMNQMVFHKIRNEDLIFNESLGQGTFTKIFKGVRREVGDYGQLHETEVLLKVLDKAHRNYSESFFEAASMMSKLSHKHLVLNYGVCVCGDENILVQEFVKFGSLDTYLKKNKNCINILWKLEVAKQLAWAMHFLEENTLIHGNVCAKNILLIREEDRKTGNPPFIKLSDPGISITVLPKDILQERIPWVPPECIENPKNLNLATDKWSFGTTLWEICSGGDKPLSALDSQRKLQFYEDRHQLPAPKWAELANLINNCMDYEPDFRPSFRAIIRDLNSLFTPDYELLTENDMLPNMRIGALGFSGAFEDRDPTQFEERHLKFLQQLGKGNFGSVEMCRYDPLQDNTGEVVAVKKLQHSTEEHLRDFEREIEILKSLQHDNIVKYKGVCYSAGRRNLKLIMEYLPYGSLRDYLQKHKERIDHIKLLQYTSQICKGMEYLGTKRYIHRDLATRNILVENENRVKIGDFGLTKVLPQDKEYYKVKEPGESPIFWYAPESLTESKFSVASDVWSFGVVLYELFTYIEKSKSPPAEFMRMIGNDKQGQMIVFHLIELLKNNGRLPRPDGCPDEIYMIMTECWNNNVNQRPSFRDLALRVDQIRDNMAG

Sequence of Glycogen synthase kinase-3 beta (P49841 whole entry): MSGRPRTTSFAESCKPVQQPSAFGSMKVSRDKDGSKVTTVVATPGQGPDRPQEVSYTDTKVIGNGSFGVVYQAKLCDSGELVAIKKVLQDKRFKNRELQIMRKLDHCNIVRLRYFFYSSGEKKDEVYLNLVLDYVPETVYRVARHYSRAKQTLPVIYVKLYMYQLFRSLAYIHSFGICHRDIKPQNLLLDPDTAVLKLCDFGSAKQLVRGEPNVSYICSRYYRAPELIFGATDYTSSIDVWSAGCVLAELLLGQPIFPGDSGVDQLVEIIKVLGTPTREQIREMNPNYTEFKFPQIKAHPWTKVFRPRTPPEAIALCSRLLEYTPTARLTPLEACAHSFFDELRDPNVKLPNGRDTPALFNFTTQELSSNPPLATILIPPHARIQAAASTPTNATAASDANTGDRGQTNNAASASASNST
Sequence of Epidermal growth factor receptor (P00533 whole entry): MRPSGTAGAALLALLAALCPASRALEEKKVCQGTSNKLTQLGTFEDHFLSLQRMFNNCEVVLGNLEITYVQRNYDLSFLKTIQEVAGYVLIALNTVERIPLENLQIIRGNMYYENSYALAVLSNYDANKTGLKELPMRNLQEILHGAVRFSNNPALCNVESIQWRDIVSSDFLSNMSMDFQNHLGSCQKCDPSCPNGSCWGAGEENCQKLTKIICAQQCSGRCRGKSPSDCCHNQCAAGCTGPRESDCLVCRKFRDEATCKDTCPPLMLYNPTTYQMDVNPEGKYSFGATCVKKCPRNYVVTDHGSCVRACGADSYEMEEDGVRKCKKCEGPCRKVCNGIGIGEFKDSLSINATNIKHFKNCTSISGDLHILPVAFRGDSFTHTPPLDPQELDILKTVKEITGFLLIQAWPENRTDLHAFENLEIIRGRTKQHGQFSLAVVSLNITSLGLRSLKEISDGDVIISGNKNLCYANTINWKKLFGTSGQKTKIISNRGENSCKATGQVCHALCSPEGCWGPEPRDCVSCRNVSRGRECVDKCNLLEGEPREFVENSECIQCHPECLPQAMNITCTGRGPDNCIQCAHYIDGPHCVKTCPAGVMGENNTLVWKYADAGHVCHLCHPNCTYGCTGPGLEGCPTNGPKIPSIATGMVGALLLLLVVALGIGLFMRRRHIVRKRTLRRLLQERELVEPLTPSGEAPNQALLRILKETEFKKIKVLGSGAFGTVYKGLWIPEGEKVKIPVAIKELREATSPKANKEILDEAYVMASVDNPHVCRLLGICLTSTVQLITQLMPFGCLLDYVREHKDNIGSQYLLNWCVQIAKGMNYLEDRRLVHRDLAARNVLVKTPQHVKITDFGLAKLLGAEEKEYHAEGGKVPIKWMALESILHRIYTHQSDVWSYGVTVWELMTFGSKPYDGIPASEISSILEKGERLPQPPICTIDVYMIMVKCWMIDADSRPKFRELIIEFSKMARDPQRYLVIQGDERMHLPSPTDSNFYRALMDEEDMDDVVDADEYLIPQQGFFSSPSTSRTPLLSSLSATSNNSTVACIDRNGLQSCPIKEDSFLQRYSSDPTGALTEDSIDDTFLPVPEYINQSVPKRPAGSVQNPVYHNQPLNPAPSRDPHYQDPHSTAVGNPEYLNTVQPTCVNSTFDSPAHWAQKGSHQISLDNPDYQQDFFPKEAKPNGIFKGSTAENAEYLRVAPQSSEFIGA
Sequence of Serine/threonine-protein kinase pim-1 (P11309 whole entry): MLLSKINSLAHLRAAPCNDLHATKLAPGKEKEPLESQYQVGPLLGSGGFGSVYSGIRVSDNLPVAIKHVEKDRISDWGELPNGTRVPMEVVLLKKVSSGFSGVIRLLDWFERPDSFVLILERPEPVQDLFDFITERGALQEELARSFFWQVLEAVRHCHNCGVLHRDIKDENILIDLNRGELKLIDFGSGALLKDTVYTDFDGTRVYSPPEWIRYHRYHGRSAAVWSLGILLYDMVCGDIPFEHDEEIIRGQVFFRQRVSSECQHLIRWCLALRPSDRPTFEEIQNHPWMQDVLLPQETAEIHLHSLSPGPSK
Sequence of Serine/threonine-protein kinase PAK 4 (O96013 whole entry): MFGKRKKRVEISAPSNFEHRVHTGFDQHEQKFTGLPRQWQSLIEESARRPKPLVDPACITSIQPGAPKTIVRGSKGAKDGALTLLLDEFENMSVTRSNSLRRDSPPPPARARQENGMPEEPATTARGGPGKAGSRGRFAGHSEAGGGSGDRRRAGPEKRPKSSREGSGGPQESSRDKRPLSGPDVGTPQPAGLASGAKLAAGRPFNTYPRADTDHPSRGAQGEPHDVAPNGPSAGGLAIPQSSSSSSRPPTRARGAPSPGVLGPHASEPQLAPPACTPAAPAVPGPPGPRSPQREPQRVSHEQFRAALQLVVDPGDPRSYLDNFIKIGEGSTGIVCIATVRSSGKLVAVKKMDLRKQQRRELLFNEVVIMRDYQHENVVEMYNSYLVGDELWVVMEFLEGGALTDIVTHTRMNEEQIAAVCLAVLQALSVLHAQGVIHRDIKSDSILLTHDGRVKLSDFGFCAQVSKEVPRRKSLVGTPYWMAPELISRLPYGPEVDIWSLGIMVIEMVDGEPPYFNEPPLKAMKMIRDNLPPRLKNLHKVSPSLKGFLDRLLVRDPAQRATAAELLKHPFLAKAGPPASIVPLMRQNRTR
Sequence of Vascular endothelial growth factor receptor 2 (P35968 whole entry): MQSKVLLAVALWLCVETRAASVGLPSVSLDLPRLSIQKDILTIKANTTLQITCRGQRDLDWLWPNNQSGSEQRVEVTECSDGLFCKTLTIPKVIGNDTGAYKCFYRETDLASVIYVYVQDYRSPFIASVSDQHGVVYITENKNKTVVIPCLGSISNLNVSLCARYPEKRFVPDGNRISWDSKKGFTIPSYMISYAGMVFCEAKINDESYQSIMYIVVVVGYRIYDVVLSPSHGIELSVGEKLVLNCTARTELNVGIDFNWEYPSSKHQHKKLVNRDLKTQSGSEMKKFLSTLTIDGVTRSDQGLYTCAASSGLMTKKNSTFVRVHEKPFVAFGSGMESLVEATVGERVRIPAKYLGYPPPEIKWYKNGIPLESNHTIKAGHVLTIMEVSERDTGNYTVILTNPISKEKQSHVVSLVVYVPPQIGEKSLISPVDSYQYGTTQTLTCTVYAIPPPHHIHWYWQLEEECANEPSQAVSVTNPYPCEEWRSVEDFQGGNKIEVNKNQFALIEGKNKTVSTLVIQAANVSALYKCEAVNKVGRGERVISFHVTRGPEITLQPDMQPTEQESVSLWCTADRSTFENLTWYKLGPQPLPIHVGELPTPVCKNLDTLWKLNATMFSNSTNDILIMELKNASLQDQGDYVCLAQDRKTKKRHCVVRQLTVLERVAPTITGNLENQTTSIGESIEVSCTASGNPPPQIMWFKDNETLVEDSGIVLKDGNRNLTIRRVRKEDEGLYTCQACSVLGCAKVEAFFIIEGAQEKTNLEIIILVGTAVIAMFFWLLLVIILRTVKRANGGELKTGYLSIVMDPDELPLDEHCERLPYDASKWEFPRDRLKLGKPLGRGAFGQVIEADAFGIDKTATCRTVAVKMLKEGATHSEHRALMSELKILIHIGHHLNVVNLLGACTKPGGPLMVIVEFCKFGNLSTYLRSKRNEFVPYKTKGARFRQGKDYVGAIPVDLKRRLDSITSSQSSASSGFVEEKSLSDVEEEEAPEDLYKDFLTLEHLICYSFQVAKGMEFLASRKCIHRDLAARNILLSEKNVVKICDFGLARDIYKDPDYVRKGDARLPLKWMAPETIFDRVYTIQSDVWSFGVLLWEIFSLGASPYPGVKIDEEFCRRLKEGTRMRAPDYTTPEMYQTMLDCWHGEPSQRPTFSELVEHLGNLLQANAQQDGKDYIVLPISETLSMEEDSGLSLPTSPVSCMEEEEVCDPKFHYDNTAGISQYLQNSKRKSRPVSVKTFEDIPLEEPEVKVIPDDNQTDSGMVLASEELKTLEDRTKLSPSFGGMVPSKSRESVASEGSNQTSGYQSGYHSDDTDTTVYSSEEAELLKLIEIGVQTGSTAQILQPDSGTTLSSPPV

Compound	Ki [1] [µM]	Ki [2] [µM]	Ki [3] [µM]	Ki [4] [µM]	Ki [5] [µM]	Ki [6] [µM]	Ki [7] [µM]
CNC(=O)c1cc(-c2ccc3[nH]ncc3c2)on1	4.27	> 3.75	3.68	0.402	> 8.88		
CCCc1cn(-c2ccc3[nH]ncc3c2)nn1	2.03	> 3.75	8.36	0.108	> 8.88	> 1.8	0.756
COCc1cn(-c2ccc3[nH]ncc3c2)nn1	> 5.45	> 3.75	> 8.57	0.635	> 8.88	> 1.8	> 1.45
OCCCc1cn(-c2ccc3[nH]ncc3c2)nn1	5.22	> 3.75	> 8.57	0.23	> 8.88	> 1.8	1.45
c1cc2[nH]ncc2cc1-n1cc(C2CC2)nn1	3.47	> 3.75	> 8.57	0.356	> 8.88	> 1.8	1.45
c1cc2[nH]ncc2cc1-n1cc(C2CCCC2)nn1	1.3	> 3.75	> 8.57	0.044	> 8.88	> 1.8	0.791
c1cc2[nH]ncc2cc1-n1cc(CC2CCCCC2)nn1	0.891	> 3.75	> 8.57	0.1	> 8.88	> 1.8	0.281
c1ccc(Cc2cn(-c3ccc4[nH]ncc4c3)nn2)cc1	0.542						
c1ccc(CCc2cn(-c3ccc4[nH]ncc4c3)nn2)cc1	0.446	> 3.75	> 8.57	0.019	> 8.88	> 1.8	0.898
c1ccc(CCCc2cn(-c3ccc4[nH]ncc4c3)nn2)cc1	0.528	> 3.75	> 8.57	0.062	> 8.88	> 1.8	0.644
c1cc2n[nH]cc2cc1-c1c[nH]nn1	0.448	69.9	2.22	0.209	3.55		1.45
Clc1ccccc1Cn1cc(-c2ccc3[nH]ncc3c2)nn1	0.045		4.15	0.097			> 1.45
Clc1cccc(Cn2cc(-c3ccc4[nH]ncc4c3)nn2)c1	0.023			0.039	13.1		1.45
Clc1ccc(Cn2cc(-c3ccc4[nH]ncc4c3)nn2)cc1	0.197		37.8	0.068	2.71		
Fc1ccccc1Cn1cc(-c2ccc3[nH]ncc3c2)nn1	0.091	13.1	10.2	0.285	> 0.915		
Fc1cccc(Cn2cc(-c3ccc4[nH]ncc4c3)nn2)c1	0.026		12	0.18			
Fc1ccc(Cn2cc(-c3ccc4[nH]ncc4c3)nn2)cc1	0.07		165	0.285			
Cc1cccc(Cn2cc(-c3ccc4[nH]ncc4c3)nn2)c1	0.07			0.375	> 0.915		
Clc1cccc(Cn2cc(-c3ccc4[nH]ncc4c3)nn2)c1Cl	0.048	67.6	20.3	0.015			
Clc1ccc(Cl)c(Cn2cc(-c3ccc4[nH]ncc4c3)nn2)c1	0.016		36	0.018	127		
Clc1cc(Cl)cc(Cn2cc(-c3ccc4[nH]ncc4c3)nn2)c1	0.028		41.5	0.041	> 0.915		
Nc1n[nH]c2ccc(-c3cc(Cc4ccccc4)no3)cc12	0.45	3.59	5.16	0.016	3.29		0.016
CCCc1cc(-c2ccc3[nH]ncc3c2)on1	2.53						
c1cc2[nH]ncc2cc1-c1cc(CN2CCCCC2)no1	3.81						> 1.45

From ChEMBL document CHEMBL1681644, “Scaffold oriented synthesis. Part 3: design, synthesis and biological evaluation of novel 5-substituted indazoles as potent and selective kinase inhibitors employing [2+3] cycloadditions” (Bioorg Med Chem Lett, 2011)
